ChEMBL document CHEMBL3046246, “Synthesis of spirothiohydantoin analogues of hydantocidin” (1995)

Assays:
Assay type in all cases: functional
Conditions in all cases: 240 h, read-out: GI
[1] = tested on: Ambrosia artemisiifolia; assay: Herbicidal activity against three-leaf stage Ambrosia artemisiifolia (ragweed) assessed as plant growth inhibition at 1000 ppm applied through foliar spraying measured after 10 days post compound treatment relative to untreated control
[2] = tested on: Ipomoea purpurea; assay: Herbicidal activity against 3-leaf stage tall Ipomoea purpurea (common morning-glory) assessed as plant growth inhibition at 1000 ppm applied through foliar spraying measured after 10 days post compound treatment relative to untreated control
[3] = tested on: Abutilon theophrasti; assay: Herbicidal activity against three-leaf stage Abutilon theophrasti (velvetleaf) assessed as plant growth inhibition at 1000 ppm applied through foliar spraying measured after 10 days post compound treatment relative to untreated control
[4] = tested on: Xanthium strumarium; assay: Herbicidal activity against three-leaf stage Xanthium strumarium (cocklebur) assessed as plant growth inhibition at 1000 ppm applied through foliar spraying measured after 10 days post compound treatment relative to untreated control
[5] = tested on: Solanum nigrum; assay: Herbicidal activity against three-leaf stage Solanum nigrum (black nightshade) assessed as plant growth inhibition at 1000 ppm applied through foliar spraying measured after 10 days post compound treatment relative to untreated control
[6] = tested on: Sorghum halepense; assay: Herbicidal activity against three-leaf stage Sorghum halepense (Johnson grass) assessed as plant growth inhibition at 1000 ppm applied through foliar spraying measured after 10 days post compound treatment relative to untreated control
[7] = tested on: Setaria viridis; assay: Herbicidal activity against three-leaf stage Setaria viridis (green foxtail) assessed as plant growth inhibition at 1000 ppm applied through foliar spraying measured after 10 days post compound treatment relative to untreated control
[8] = tested on: Panicum dichotomiflorum; assay: Herbicidal activity against three-leaf stage Panicum dichotomiflorum assessed as plant growth inhibition at 1000 ppm applied through foliar spraying measured after 10 days post compound treatment relative to untreated control
[9] = tested on: Digitaria sanguinalis; assay: Herbicidal activity against three-leaf stage Digitaria sanguinalis (hairy crabgrass) assessed as plant growth inhibition at 1000 ppm applied through foliar spraying measured after 10 days post compound treatment relative to untreated control
[10] = tested on: Echinochloa crus-galli; assay: Herbicidal activity against three-leaf stage Echinochloa crus-galli (barnyard grass) assessed as plant growth inhibition at 1000 ppm applied through foliar spraying measured after 10 days post compound treatment relative to untreated control

Row | SMILES | inhibition of growth at 1000 ppm [1] | inhibition of growth at 1000 ppm [2] | inhibition of growth at 1000 ppm [3] | inhibition of growth at 1000 ppm [4] | inhibition of growth at 1000 ppm [5] | inhibition of growth at 1000 ppm [6] | inhibition of growth at 1000 ppm [7] | inhibition of growth at 1000 ppm [8] | inhibition of growth at 1000 ppm [9] | inhibition of growth at 1000 ppm [10]
1 | O=C1NC(=S)N[C@]12O[C@H](CO)[C@@H](O)[C@H]2O | 80% | 80% | 80% | 95% | 80% | 95% | 95% | 80% | 95% | 95%
2 | O=C1NC(=S)N[C@@]12O[C@H](CO)[C@@H](O)[C@H]2O | 95% | 95% | 95% | 95% | 95% | 95% | 95% | 80% | 95% | 95%
3 | O=C1NC(=O)[C@@]2(N1)O[C@H](CO)[C@@H](O)[C@H]2O [HYDANTOCIDIN] | 95% | 95% | 95% | 95% | 95% | 95% | 95% | 95% | 95% | 95%
4 | O=C1NC(=O)[C@]2(N1)O[C@H](CO)[C@@H](O)[C@H]2O [HYDANTOCIDIN] |  | 30% | 80% | 80% | 50% | 0% | 80% | 80% | 80% | 10%
